Assay results reported in PubChem BioAssay (NCI).
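96-well plates; 48 h exposure; 5 concentrations. Endpoints by linear interpolation between flanking doses. Not reached: highest tested concentration assigned. GI50 is the concentration that inhibits growth by half. TGI: total growth inhibition.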

Assays:
Test in all cases: DTP human tumour cell line panel, 48 h
[1] = test system: SF-295 CNS
[2] = test system: RXF 393 renal
[3] = test system: RPMI-8226 leukemia
[4] = test system: MCF7 breast
[5] = test system: NCI-H23 lung
[6] = test system: HCT-15 colon
[7] = test system: COLO 205 colon
[8] = test system: SR leukemia
[9] = test system: MDA-MB-231 breast
[10] = test system: EKVX NSCLC
[11] = test system: SK-MEL-28 melanoma
[12] = test system: OVCAR-4 ovarian
[13] = test system: SF-268 CNS
[14] = test system: NCI-H460 lung
[15] = test system: T-47D breast
[16] = test system: MALME-3M melanoma
[17] = test system: SK-MEL-5 melanoma
[18] = test system: TK-10 renal
[19] = test system: PC-3 prostate
[20] = test system: UACC-62 melanoma
[21] = test system: K-562 leukemia
[22] = test system: HCC-2998 colon
[23] = test system: MOLT-4 leukemia
[24] = test system: NCI/ADR-RES ovarian
[25] = test system: NCI-H226 lung
[26] = test system: A498 renal
[27] = test system: BT-549 breast
[28] = test system: MDA-MB-435
[29] = test system: KM12 colon
[30] = test system: OVCAR-3 ovarian
[31] = test system: UO-31 renal
[32] = test system: SN12C renal
[33] = test system: HOP-92 NSCLC
[34] = test system: ACHN renal
[35] = test system: LOX IMVI melanoma
[36] = test system: HS 578T breast
[37] = test system: UACC-257 melanoma
[38] = test system: DU-145 prostate
[39] = test system: CCRF-CEM leukemia
[40] = test system: HL-60(TB) leukemia
[41] = test system: SNB-19 CNS
[42] = test system: SNB-75 CNS
[43] = test system: OVCAR-8 ovarian
[44] = test system: SK-OV-3 ovarian
[45] = test system: HCT-116 colon
[46] = test system: 786-0 renal
[47] = test system: SF-539 CNS
[48] = test system: SW-620 colon
[49] = test system: IGROV1 ovarian
[50] = test system: A549 NSCLC
[51] = test system: CAKI-1 renal
[52] = test system: OVCAR-5 ovarian
[53] = test system: HT29 colon
[54] = test system: HOP-62 NSCLC
[55] = test system: NCI-H522 lung
[56] = test system: U251 CNS
[57] = test system: SK-MEL-2 melanoma
[58] = test system: M14 melanoma

O=C(N/N=C/c1ccc(Cl)s1)c1[nH]c2ccc(Br)cc2c1-c1ccccc1
GI50 [1]: 275 nM
TGI [1]: 3220 nM
GI50 [2]: 547 nM
TGI [2]: 5010 nM
GI50 [3]: 356 nM
TGI [3]: > 52500 nM
GI50 [4]: 266 nM
TGI [4]: 4210 nM
GI50 [5]: 426 nM
TGI [5]: 38800 nM
GI50 [6]: 277 nM
GI50 [7]: 488 nM
TGI [7]: 1680 nM
GI50 [8]: 290 nM
TGI [8]: 27600 nM
GI50 [9]: 290 nM
TGI [9]: 3090 nM
GI50 [10]: 1180 nM
TGI [10]: > 100000 nM
GI50 [11]: 627 nM
TGI [11]: > 100000 nM
GI50 [12]: 594 nM
TGI [12]: 69800 nM
GI50 [13]: 574 nM
TGI [13]: > 100000 nM
GI50 [14]: 335 nM
TGI [14]: 3270 nM
GI50 [15]: 2310 nM
TGI [15]: > 86800 nM
GI50 [16]: 489 nM
TGI [16]: > 74400 nM
GI50 [17]: 284 nM
TGI [17]: 878 nM
GI50 [18]: 4190 nM
TGI [18]: > 100000 nM
GI50 [19]: 450 nM
TGI [19]: > 100000 nM
GI50 [20]: 334 nM
TGI [20]: 25900 nM
GI50 [21]: 235 nM
TGI [21]: > 73800 nM
GI50 [22]: 453 nM
TGI [22]: 46000 nM
GI50 [23]: 330 nM
TGI [23]: > 21400 nM
GI50 [24]: 144 nM
GI50 [25]: 313 nM
TGI [25]: 6930 nM
GI50 [26]: 28300 nM
TGI [26]: > 100000 nM
GI50 [27]: 274 nM
TGI [27]: 765 nM
GI50 [28]: 196 nM
TGI [28]: 384 nM
GI50 [29]: 402 nM
TGI [29]: 27900 nM
GI50 [30]: 321 nM
TGI [30]: 4180 nM
GI50 [31]: 520 nM
TGI [31]: > 100000 nM
GI50 [32]: 350 nM
TGI [32]: 32900 nM
GI50 [33]: 1370 nM
TGI [33]: 68300 nM
GI50 [34]: 361 nM
TGI [34]: > 61500 nM
GI50 [35]: 308 nM
TGI [35]: 1350 nM
GI50 [36]: 496 nM
TGI [36]: 34900 nM
GI50 [37]: 508 nM
TGI [37]: > 100000 nM
GI50 [38]: 346 nM
TGI [38]: 34100 nM
GI50 [39]: 354 nM
TGI [39]: > 86400 nM
GI50 [40]: 226 nM
TGI [40]: 612 nM
GI50 [41]: 331 nM
TGI [41]: > 90200 nM
GI50 [42]: 259 nM
TGI [42]: 3450 nM
GI50 [43]: 214 nM
TGI [43]: 714 nM
GI50 [44]: 409 nM
TGI [44]: 91200 nM
GI50 [45]: 231 nM
TGI [45]: 7060 nM
GI50 [46]: 418 nM
TGI [46]: > 41500 nM
GI50 [47]: 122 nM
TGI [47]: 429 nM
GI50 [48]: 375 nM
TGI [48]: > 100000 nM
GI50 [49]: 386 nM
TGI [49]: 21400 nM
GI50 [50]: 376 nM
TGI [50]: > 48200 nM
GI50 [51]: 450 nM
TGI [51]: 47000 nM
GI50 [52]: 424 nM
TGI [52]: > 100000 nM
GI50 [53]: 319 nM
TGI [53]: 10700 nM
GI50 [54]: 766 nM
TGI [54]: 41600 nM
GI50 [55]: 71.9 nM
TGI [55]: 242 nM
GI50 [56]: 322 nM
TGI [56]: 18200 nM
GI50 [57]: 325 nM
TGI [57]: 21000 nM
GI50 [58]: 318 nM
TGI [58]: > 100000 nM
